Laboratory results published in ChEMBL document CHEMBL5532666 (J Med Chem, 2024).
The source made the active and inactive calls. The calls are words filed in the database; no cut-off is given here.

Columns and labels:
HCT-116 [1] = experiment: Cell cycle arrest in human HCT-116 cells expressing […] assessed as G2/M phase cells at 10 uM incubated for 72 hrs by Hoechst33342 staining based analysis (reference value: 38%); assay type: functional
HCT-116 [2] = experiment: Cell cycle arrest in human HCT-116 cells expressing […] assessed as S phase cells at 1 uM incubated for 72 hrs by Hoechst33342 staining based analysis relative to control; assay type: functional
[3] = biological target: T1, Serine/threonine-protein kinase 26 (Homo sapiens, UniProt Q9P289); conditions: dose 10.0 µM
Target sequence in this assay (Q9P289 2-416 limits assumed): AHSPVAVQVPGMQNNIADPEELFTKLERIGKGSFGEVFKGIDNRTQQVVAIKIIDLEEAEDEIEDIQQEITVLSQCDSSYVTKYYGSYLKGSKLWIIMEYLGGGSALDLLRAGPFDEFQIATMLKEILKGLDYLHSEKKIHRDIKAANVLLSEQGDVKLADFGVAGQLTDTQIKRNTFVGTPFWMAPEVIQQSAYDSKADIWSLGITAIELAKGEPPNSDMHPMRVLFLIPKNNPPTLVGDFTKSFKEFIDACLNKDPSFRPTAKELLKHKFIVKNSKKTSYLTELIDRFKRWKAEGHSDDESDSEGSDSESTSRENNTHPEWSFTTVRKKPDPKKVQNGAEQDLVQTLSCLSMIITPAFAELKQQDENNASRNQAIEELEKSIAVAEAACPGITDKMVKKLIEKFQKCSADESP
Description: Binding affinity to recombinant MST4 (unknown origin) kinase domain assessed as thermal stabilization by measuring change in melting temperature at 10 uM by DSF analysis

[4] = biological target: T2, Serine/threonine-protein kinase 3 (Homo sapiens) (UniProt Q13188); experiment: Binding affinity to MST2 (unknown origin) assessed as residual activity at 10 uM relative to control
T2 sequence (whole entry): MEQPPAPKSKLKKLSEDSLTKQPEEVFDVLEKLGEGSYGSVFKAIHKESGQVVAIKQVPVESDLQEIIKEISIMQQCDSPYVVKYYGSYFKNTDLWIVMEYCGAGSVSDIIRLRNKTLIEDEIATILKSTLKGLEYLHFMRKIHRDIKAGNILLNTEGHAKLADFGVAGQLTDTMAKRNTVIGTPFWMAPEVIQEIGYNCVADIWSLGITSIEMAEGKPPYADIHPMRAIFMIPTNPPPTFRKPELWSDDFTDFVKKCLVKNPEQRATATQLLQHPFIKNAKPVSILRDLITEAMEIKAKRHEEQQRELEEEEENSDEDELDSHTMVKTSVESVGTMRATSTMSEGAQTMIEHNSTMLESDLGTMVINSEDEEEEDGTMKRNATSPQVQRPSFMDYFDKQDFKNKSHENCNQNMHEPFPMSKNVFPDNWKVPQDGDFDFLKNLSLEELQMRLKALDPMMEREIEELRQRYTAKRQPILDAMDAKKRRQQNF

[5] = Toxicity in human HCT-116 cells expressing FUCCI assessed as decrease in normalized cell count at 1 to 10 uM measured after 72 hrs by Hoechst33342 staining based analysis relative to control; parameters: scale not given: the % may be the effect or the level left; conditions: hct-116, 72 h, dose 1-10 µM
[6] = biological target: T3, Serine/threonine-protein kinase 4 (Homo sapiens) (UniProt Q13043); experiment: Binding affinity to MST1 (unknown origin) assessed as residual activity at 10 uM relative to control
T3 sequence (whole entry): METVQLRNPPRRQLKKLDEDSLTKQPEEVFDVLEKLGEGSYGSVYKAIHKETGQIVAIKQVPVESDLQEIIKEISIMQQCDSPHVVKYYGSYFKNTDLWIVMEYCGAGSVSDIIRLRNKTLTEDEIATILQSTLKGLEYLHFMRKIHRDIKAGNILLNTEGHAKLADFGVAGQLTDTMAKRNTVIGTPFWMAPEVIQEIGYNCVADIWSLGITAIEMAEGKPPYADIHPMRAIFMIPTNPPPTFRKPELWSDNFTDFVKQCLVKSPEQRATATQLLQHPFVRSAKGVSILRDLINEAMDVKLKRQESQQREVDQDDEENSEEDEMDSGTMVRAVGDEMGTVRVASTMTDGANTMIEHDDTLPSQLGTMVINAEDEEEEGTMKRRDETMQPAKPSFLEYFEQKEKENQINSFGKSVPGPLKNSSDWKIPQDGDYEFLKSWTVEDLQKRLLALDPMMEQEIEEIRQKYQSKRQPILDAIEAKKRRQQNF

[7] = biological target: T1, Serine/threonine-protein kinase 26; experiment: Binding affinity to C-terminal full length human MST4 expressed in intact HEK293T cells incubated for 2 hrs by NanoBRET assay; assay type: cell-based
Target sequence in this assay (Q9P289 whole entry): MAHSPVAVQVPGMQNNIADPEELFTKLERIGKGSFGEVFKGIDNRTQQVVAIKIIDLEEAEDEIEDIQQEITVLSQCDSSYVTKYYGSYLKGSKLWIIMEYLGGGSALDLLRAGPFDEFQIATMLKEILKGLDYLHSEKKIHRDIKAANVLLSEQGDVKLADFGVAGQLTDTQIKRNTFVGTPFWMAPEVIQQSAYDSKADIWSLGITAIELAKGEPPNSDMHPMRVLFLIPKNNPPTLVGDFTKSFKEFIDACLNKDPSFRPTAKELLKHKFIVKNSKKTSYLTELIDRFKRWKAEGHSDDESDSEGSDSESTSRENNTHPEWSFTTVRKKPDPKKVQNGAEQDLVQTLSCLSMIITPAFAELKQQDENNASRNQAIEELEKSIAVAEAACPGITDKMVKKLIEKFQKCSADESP

HCT-116 [8] = experiment: Cell cycle arrest in human HCT-116 cells expressing […] assessed as G1 phase cells at 10 uM incubated for 72 hrs by Hoechst33342 staining based analysis (reference value: 52%); assay type: functional
[9] = biological target: T2, Serine/threonine-protein kinase 3 (Homo sapiens); conditions: dose 10.0 µM
Description: Binding affinity to recombinant MST2 (unknown origin) kinase domain assessed as thermal stabilization by measuring change in melting temperature at 10 uM by DSF analysis

[10] = biological target: T3, Serine/threonine-protein kinase 4 (Homo sapiens); conditions: dose 10.0 µM
Description: Binding affinity to recombinant MST1 (unknown origin) kinase domain assessed as thermal stabilization by measuring change in melting temperature at 10 uM by DSF analysis

[11] = biological target: T4, Serine/threonine-protein kinase 24 (Homo sapiens, UniProt Q9Y6E0); experiment: Binding affinity to C-terminal full length human MST3 expressed in intact HEK293T cells incubated for 2 hrs by NanoBRET assay; assay type: cell-based
Target sequence in this assay (Q9Y6E0 whole entry): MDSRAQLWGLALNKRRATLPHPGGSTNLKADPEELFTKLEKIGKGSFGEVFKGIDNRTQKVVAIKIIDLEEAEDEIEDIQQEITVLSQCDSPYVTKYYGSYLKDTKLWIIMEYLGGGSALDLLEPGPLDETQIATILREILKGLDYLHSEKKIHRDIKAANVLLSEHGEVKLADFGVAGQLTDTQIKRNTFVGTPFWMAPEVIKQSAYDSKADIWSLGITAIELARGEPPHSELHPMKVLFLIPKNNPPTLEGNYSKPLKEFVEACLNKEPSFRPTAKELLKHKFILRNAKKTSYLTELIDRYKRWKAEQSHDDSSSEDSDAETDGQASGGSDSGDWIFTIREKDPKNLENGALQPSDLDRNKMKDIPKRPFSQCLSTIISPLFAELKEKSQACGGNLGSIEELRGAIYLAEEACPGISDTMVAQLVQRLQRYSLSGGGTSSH

HCT-116 [12] = experiment: Cell cycle arrest in human HCT-116 cells expressing […] assessed as G1 phase cells at 1 uM incubated for 72 hrs by Hoechst33342 staining based analysis (reference value: 52%); assay type: functional
HCT-116 [13] = experiment: Cell cycle arrest in human HCT-116 cells expressing […] assessed as S phase cells at 10 uM incubated for 72 hrs by Hoechst33342 staining based analysis relative to control; assay type: functional
[14] = biological target: T1, Serine/threonine-protein kinase 26; experiment: Binding affinity to MST4 (unknown origin) assessed as residual activity at 10 uM relative to control
Target sequence in this assay (Q9P289 2-416 limits assumed): as the sequence (Q9P289 2-416 limits assumed) above

HCT-116 [15] = experiment: Cell cycle arrest in human HCT-116 cells expressing […] assessed as G2/M phase cells at 1 uM incubated for 72 hrs by Hoechst33342 staining based analysis (reference value: 38%); assay type: functional
[16] = biological target: T4, Serine/threonine-protein kinase 24; conditions: dose 10.0 µM
Target sequence in this assay (Q9Y6E0 whole entry, looked up): as the sequence (Q9Y6E0 whole entry) above
Description: Binding affinity to recombinant MST3 (unknown origin) kinase domain assessed as thermal stabilization by measuring change in melting temperature at 10 uM by DSF analysis

[17] = biological target: T1, Serine/threonine-protein kinase 26; experiment: Binding affinity to C-terminal full length human MST4 expressed in permeabilized HEK293T cells incubated for 2 hrs by NanoBRET assay; assay type: cell-based
Target sequence in this assay (Q9P289 whole entry): as the sequence (Q9P289 whole entry) above

[18] = biological target: T5, Serine/threonine-protein kinase 3 (Homo sapiens, UniProt Q13188); experiment: Binding affinity to N-terminal full length human MST2 expressed in intact HEK293T cells incubated for 2 hrs by NanoBRET assay; assay type: cell-based
T5 sequence (Q13188 whole entry): T2 sequence (whole entry)

[19] = biological target: T4, Serine/threonine-protein kinase 24; experiment: Binding affinity to C-terminal full length human MST3 expressed in permeabilized HEK293T cells incubated for 2 hrs by NanoBRET assay; assay type: cell-based
Target sequence in this assay (Q9Y6E0 whole entry): as the sequence (Q9Y6E0 whole entry) above

[20] = biological target: T6, Serine/threonine-protein kinase 4 (Homo sapiens, UniProt Q13043); experiment: Binding affinity to N-terminal full length human MST1 expressed in intact HEK293T cells incubated for 2 hrs by NanoBRET assay; assay type: cell-based
T6 sequence (Q13043 whole entry): T3 sequence (whole entry)

[21] = biological target: Glycogen synthase kinase-3 beta (Homo sapiens) (UniProt P49841); experiment: Binding affinity to GSK3B (unknown origin) assessed as thermal stabilization by measuring change in melting temperature by DSF analysis
Sequence of Glycogen synthase kinase-3 beta (Homo sapiens) (P49841 whole entry, looked up): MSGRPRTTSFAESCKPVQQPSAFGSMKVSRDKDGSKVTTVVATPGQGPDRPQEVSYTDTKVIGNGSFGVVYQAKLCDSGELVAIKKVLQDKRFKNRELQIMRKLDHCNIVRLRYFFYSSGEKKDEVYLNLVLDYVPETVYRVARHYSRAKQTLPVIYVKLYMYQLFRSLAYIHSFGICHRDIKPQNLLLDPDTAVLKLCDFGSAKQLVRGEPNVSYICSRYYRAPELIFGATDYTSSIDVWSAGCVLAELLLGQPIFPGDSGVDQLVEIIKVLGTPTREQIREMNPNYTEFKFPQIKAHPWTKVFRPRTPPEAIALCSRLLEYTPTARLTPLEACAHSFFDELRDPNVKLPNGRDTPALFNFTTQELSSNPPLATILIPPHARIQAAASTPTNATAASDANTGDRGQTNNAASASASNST

ΔTm [3] | EC50 [7] | ΔTm [9] | ΔTm [10] | EC50 [11] | ΔTm [16] | EC50 [17] | EC50 [18] | EC50 [19] | EC50 [20] | SMILES | further results
0.7 °C | 6.71 µM | 0.7 °C | 0.3 °C | 4.97 µM | 1.2 °C | 7.61 µM | 9.96 µM | 5.17 µM | 11.8 µM | O=C1NCCc2ccc(cc2)Nc2ncc(Cl)c(n2)Nc2cc1[nH]n2 | –
2.5 °C | 37.6 µM | 0.5 °C | 0.6 °C | 4.49 µM | 2.5 °C | 4.3 µM | > 50 µM | 1.23 µM | > 50 µM | O=C1NCCOCCNc2nc(c3ccccc3n2)Nc2cc1[nH]n2 | Activity [21]: inactive
2.1 °C | > 50 µM | 1 °C | 1.5 °C | > 50 µM | 0.3 °C | 45 µM | > 50 µM | 21.9 µM | > 50 µM | O=C1NCCCCCCNc2ncc(Cl)c(n2)Nc2cc1[nH]n2 | –
1.6 °C | > 50 µM | 2.8 °C | 2.5 °C | 40.3 µM | 2.7 °C | 7.76 µM | 10.1 µM | 2.67 µM | 9.74 µM | O=C1NCCCCCNc2ncc(Cl)c(n2)Nc2cc1[nH]n2 | –
0.6 °C | 10.2 µM | 1.7 °C | 0.8 °C | 14.1 µM | 2.9 °C | 10.3 µM | 7.54 µM | 8.53 µM | 7.84 µM | O=C1NCCc2cccc(c2)Nc2ncc(Cl)c(n2)Nc2cc1[nH]n2 | –
4 °C | 11.8 µM | 1.3 °C | 1.7 °C | 6.51 µM | 3.9 °C | 2.44 µM | 13 µM | 0.92 µM | 13.7 µM | O=C1NCCc2cccc(c2)Nc2nc(c3ccccc3n2)Nc2cc1[nH]n2 | –
– | – | – | – | – | – | – | – | – | – | CNC(=O)c1nn(C)c2c1C(C)(C)Cc1cnc(Nc3ccc(N4CCN(C)CC4)cc3)nc1-2 [MILCICLIB] | Activity (HCT-116 [1]): 21%; Activity (HCT-116 [8]): 63%; Activity (HCT-116 [12]): 72%; Activity (HCT-116 [13]): 16%; Activity (HCT-116 [15]): 19%
2.3 °C | 38.8 µM | 0.2 °C | 1 °C | 37 µM | 0.5 °C | > 50 µM | > 50 µM | 38.3 µM | > 50 µM | Cc1cnc2nc1Nc1cc([nH]n1)C(=O)NCCc1ccc(cc1)N2 | –
2.8 °C | > 50 µM | 0.6 °C | 1.1 °C | > 50 µM | 0.6 °C | 41.8 µM | > 50 µM | 17.7 µM | > 50 µM | O=C1NCCOCCNc2ncc(Cl)c(n2)Nc2cc1[nH]n2 | –
4 °C | – | 0.4 °C | 0.7 °C | 1.75 µM | 3.7 °C | 1.26 µM | 40.1 µM | 0.45 µM | > 50 µM | O=C1NCCCCCCNc2nc(c3ccccc3n2)Nc2cc1[nH]n2 | ΔTm [21]: > 5 °C
4.7 °C | 17.5 µM | 2.3 °C | 1 °C | 4.45 µM | 3.3 °C | 2.75 µM | 28.3 µM | 1.46 µM | 28.6 µM | O=C1NCCc2ccc(cc2)Nc2nc(c3ccccc3n2)Nc2cc1[nH]n2 | –

SMILES | ΔTm [3] | EC50 [7] | ΔTm [9] | ΔTm [10] | EC50 [11] | ΔTm [16] | EC50 [17] | EC50 [18] | EC50 [19] | EC50 [20] | further results
N#CCc1ccc(Nc2nccc(Nc3cc(C4CC4)[nH]n3)n2)cc1 | 7.1 °C | 4.84 µM | 11.6 °C | 9.6 °C | 6.54 µM | 9.3 °C | – | – | – | – | Activity (HCT-116 [1]): 42%; Activity (HCT-116 [2]): 18%; Activity [4]: 0.15%; Activity [5]: < 50%; Activity [6]: 0.15%; Activity (HCT-116 [8]): 42%; Activity (HCT-116 [12]): 52%; Activity (HCT-116 [13]): 16%; Activity [14]: 0.15%; Activity (HCT-116 [15]): 30%
